From patent US11173139B2, “Method for extending lifespan delaying the onset of age-related disease” (priority 2004, dated 2021)

Legend:
[1] = tested on: Sir2 or SIRT1; conditions: cited from earlier work
[2] = tested on: Drosophila melanogaster; test: D. melanogaster lifespan under stress (food vials not changed, microbial pathogens); type: in vivo; conditions: Example 5, flies under stress
From the text: It is well known in the literature that calorie restricted animals survive stress better than the control animals fed an ad libitum diet. The data from the experiment were charted and are represented in FIG. 5.

[3] = tested on: liver tissue gene expression; test: Liver gene expression, Affymatrix Mouse Genome 430 2.0 Array, oxaloacetate and CR mice versus control mice; type: in vivo, C57Bl/6 mice; conditions: for common genes changed in same direction as calorie restriction: of the 363 common genes
From the text: Three mice of each of the three groups of the C57Bl/6 mice of Example 6 were sacrificed after 21 weeks. […] Because each group was a pooling of three mice, there are a variety of individual responses. Changes in the physical results of the group (such as weight loss, increase in health span, and increase in life span) are due to genes expressed in common by the group, not in individual variation. Thus it is important to look at the genes that changed in expression from the control group, but are commonly expressed between the calorie restricted group and the oxaloacetate supplemented group.

[4] = 21 diabetic patients, 100 mg to 1,000 mg (2-10 mg/kg); cited from earlier work
[5] = Weight gain of older (9 month) C57Bl/6 mice fed oxaloacetate; type: in vivo, C57Bl/6 type male mice; conditions: 0.4% oxaloacetate in the food, eating freely, 9 month old mice
From the text: C57Bl/6 type male mice approximately 9 months of age were obtained from Harlan, San Diego, Calif. as retired breeders. These mice were all born on the same day. The C57Bl/6 type mouse is inbred to reduce the genetic variation between individuals. The mice were housed in individual cages and were provided with ad libitum amounts of fortified food pellets (Kadee). The amount of food consumed was weighed daily, while the mice were weighed weekly. After two weeks, a baseline of the average food consumed by the mice was established at 7.1 grams per mouse per day. In addition, after an overnight fast, blood glucose readings for each mouse were recorded for each mouse. […] Male C57Bl/6 type mice, when allowed to eat freely, gain weight with age in a linear fashion. The mice were weighed weekly for 21 weeks, and the individual weights were recorded and averaged to form a “group average” for each of the three groups.

[6] = tested on: Drosophila melanogaster (Vestigal type); test: D. melanogaster lifespan with oxaloacetate in fly food; type: in vivo; conditions: Example 4, 16 mM in water wetting the fly food, vs control
From the text: The fruit fly Drosophila melanogaster (Vestigal type, from Carolina Biological Supply) was used as a test organism to assess the addition of oxaloacetate therapy (from Sigma Aldrich Company) applied to the cells to extend lifespan and to act as a caloric restriction “mimic”. The fruit fly is more complex than C. elegans, but the metabolic pathways that involve calorie restriction are a basic building block of life, and are conserved throughout the animal kingdom. […] A small amount of yeast was added on top of the fly food. […] The flies were kept in a room receiving reflected natural sunlight at a temperature of 21° C. Each of the flies used emerged from the pupae state within 8 hours of each other. The day the flies were moved to the test vials was designated “day 0”, reflecting the emergence of the fly into adulthood. The flies were kept out of direct sunlight and were raised at a temperature of 21° C. The food vials were prepared every 3 to 4 days and the flies transferred to prevent infestation of mites and other pathogenic microbial organisms. The vials with the flies were counted every day to determine the number of dead vs. living. Flies were scored as dead when they no longer respond to a gentle prodding with a probe. Lifespan is defined as the time elapsed from when the flies enter into adulthood (lifespan=0) to when they are scored as dead. […]

[7] = tested on: C. elegans (N2 wild type); test: C. elegans lifespan on oxaloacetate-containing nematode growth agar; type: in vivo, Caenorhabditis elegans
Procedure: A similar set of eight control plates with the same nematode growth agar was also prepared. […] In addition, five “starter plates” were made using nematode growth agar and no 5′flurodeoxyuridine. All plates were streaked with 0.5 ml bacteria Luria broth containing E. coli as a food source for the nematodes. The bacteria were allowed to grow on the plates for several days at 37° C. prior to adding C. elegans. Ten C. elegans nematodes were transferred to each of five “starter plates” and were left on the plates for 12 hours to lay eggs. The C. elegans were then removed and the eggs were allowed to grow into young adults for two days. Ten nematodes were then transferred to each control plate and oxaloacetate plate by “picking” worms with a microprobe from the starter plate and moving it onto the target test plates. The day after the starter plates have been started with the 10 C. elegans was designated “day 0”, and was the estimated time of birth. The C. elegans were kept out of direct sunlight and were raised at a temperature of 21° C. The plates with the C. elegans were counted every day to determine the number of dead nematodes. Nematodes were scored as dead when they no longer respond to a gentle prodding with a probe. Lifespan is defined as the time elapsed from when the nematodes are hatched (lifespan=0) to when they are scored as dead. Nematodes that crawl off the plates or are otherwise lost during the assay have been excluded from calculations. The dead nematodes were removed from the plates each day with microprobe. The total population is the sum of all found dead worms. The counting of the nematodes was continued until all nematodes were dead. The data was then charted and is represented in FIG. 2. […] The highest increase in lifespan was at 16 mM (approximate 25%) for the concentrations tested, and the lowest increase was a 2 mM (approximately 10%). […] Splitomycin is a selective inhibitor for the Sir2 gene (Sir2a in yeast, Sirt1 in humnans).

[8] = in vivo; cited from earlier work
[9] = tested on: C57Bl/6 mice; test: Lifespan and health of C57Bl/6 mice fed oxaloacetate; type: in vivo; conditions: 0.4% in food by weight, at the 21st month of life, still continuing
[10] = mouse, in vivo
[11] = count of genes among those shown to change commonly

Q: With `CC=O` [acetaldehyde] as the compound, how does the “activity of beneficial genes” value [1] read?
A: The value was “did not see any increase in the activity of beneficial genes”.

Q: Which “maximal increase in lifespan” value [2] does the source give for `O=C(O)CC(=O)C(=O)O` [oxaloacetate] here?
A: The value was 30%.

Q: And the “percentage of common changed genes moving in same direction as calorie restriction” value ([3]; 363 common genes, liver, Table 1)?
A: Its value is 98%.

Q: And the “Gene Movement in Same Direction?, Cyp2b9” value ([3]; Affymatrix No. 3985, OX versus CR, both to control)?
A: Its value is “YES”.

Q: And the “Gene Movement in Same Direction?, similar to cytochrome P450 2B4-rat (LOC232993)” value ([3]; Affymatrix No. 17655, OX versus CR, both to control)?
A: Its value is “YES”.

Q: What about the “Percentage of Genes Moving in Same Direction as Calorie Restricted Mice” value ([3]; Table 2, 1.7 fold cut off) of the same compound?
A: Its value is 100.0%.

Q: And the “Mice Fed Oxaloacetate with Genes Moving in Opposite Direction as Calorie Restricted Mice” value [3, 11]?
A: Its value is 7.

Q: What about the “Mice Fed Oxaloacetate with Genes Moving in Same Direction as Calorie Restricted Mice” value [3, 11] of the same compound?
A: The value was 356.

Q: What about the “Percentage of Mice Fed Oxaloacetate with Genes Moving in Same Direction as Calorie Restricted Mice” value ([3]; genes shown to change commonly) of the same compound?
A: Its value is 98.1%.

Q: What about the “common genes changed in same direction as calorie restriction” value ([3]; liver) of the same compound?
A: The value was 357 genes.

Q: And the “common genes changed in same direction as calorie restriction” value ([3]; liver, listed as Oxaloacetate)?
A: Its value is 356 genes.

Q: And the “genes with measurable change in expression versus control” value ([3]; pooled liver of three mice, 21 weeks)?
A: Its value is 765 genes.

Q: What about the “genes changed in common with calorie restricted mice versus control” value ([3]; pooled liver, 21 weeks) of the same compound?
A: The value was 363 genes.

Q: And the side effects [4]?
A: The side effects was “no negative side effects”.

Q: What about the “less weight gained than control group” value [5] of the same compound?
A: Its value is 20%.

Q: And the “increase in average lifespan” value [6]?
A: Its value is 20%.

Q: And the “increase in maximal life span” value ([7]; Example 1, 16 mM in nematode growth agar, vs control plates)?
A: The value was 40%.

Q: What about the “increase in average lifespan” value ([7]; Example 1, 16 mM in nematode growth agar, vs control plates, 21° C.) of the same compound?
A: Its value is 23.6%.

Q: And the increase in lifespan ([7]; Example 2, 2 mM in agar (lowest increase))?
A: Its increase in lifespan is “approximately 10%”.

Q: And the increase in lifespan ([7]; Example 2, 16 mM in agar (highest increase))?
A: Its increase in lifespan is about 25%.

Q: And the LD50 [8]?
A: Its LD50 is “above 5 g/kg of body weight”.

Q: And the “increase in lifespan over control group” value [9]?
A: Its value is at least 10%.

Q: And the “toxicity” value [10]?
A: Its value is “negative toxicity”.

Q: Which “lifespan compared with control group” value ([7]; Example 3, FIG. 3, inhibited Sir2 function, no oxaloacetate) does the source give for `O=C1CCc2c(ccc3ccccc23)O1` [splitomycin, reference compound] here?
A: Its value is “lived for shorter periods than the control group”.
